According to PubChem BioAssay (NCI):
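Five compound concentrations were applied to cells in 96-well plates for 48 hours; endpoints were derived by simple linear interpolation of the resulting dose-response curve. TGI denotes the concentration required for complete inhibition of growth.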

Columns and labels:
Experiment in all cases: NCI anticancer screen, dose series, 48 h
[1] = tested on: SNB-78 CNS
[2] = tested on: HOP-92 NSCLC
[3] = tested on: HOP-18 NSCLC
[4] = tested on: CAKI-1 renal
[5] = tested on: MCF7 breast
[6] = tested on: MALME-3M melanoma
[7] = tested on: NCI-H226 lung
[8] = tested on: OVCAR-4 ovarian
[9] = tested on: KM20L2 colon
[10] = tested on: COLO 205 colon
[11] = tested on: DMS 273 small cell lung
[12] = tested on: DLD-1 colon
[13] = tested on: DMS 114 small cell lung
[14] = tested on: LXFL 529 NSCLC
[15] = tested on: TK-10 renal
[16] = tested on: HS 578T breast
[17] = tested on: T-47D breast
[18] = tested on: PC-3 prostate
[19] = tested on: MDA-MB-435
[20] = tested on: DU-145 prostate

Which TGI [1] does the source give for `CC(NC(=O)C(C)NC(=O)C(N)CCP(C)(=O)O)C(=O)O` (stereo not given) here?
Its TGI is > 100 µM.

And the TGI [2]?
The TGI was > 100 µM.

And the TGI [3]?
Its TGI is > 100 µM.

And the TGI [4]?
The TGI was > 100 µM.

And the TGI [5]?
The TGI was > 100 µM.

What about the TGI [6] of the same compound?
Its TGI is > 100 µM.

And the TGI [7]?
Its TGI is > 100 µM.

What about the TGI [8] of the same compound?
Its TGI is > 100 µM.

What about the TGI [9] of the same compound?
The TGI was > 100 µM.

What about the TGI [10] of the same compound?
Its TGI is > 100 µM.

What about the TGI [11] of the same compound?
Its TGI is > 100 µM.

What about the TGI [12] of the same compound?
Its TGI is > 100 µM.

Which results are given for `Nc1nc(SCc2ccc([N+](=O)[O-])cc2)nc2c1ncn2C1OC(COP(=O)(O)O)C(O)C1O` (stereo not given)?
TGI [1]: > 100 µM; TGI [2]: > 100 µM; TGI [13]: > 100 µM; TGI [14]: > 100 µM; TGI [15]: > 100 µM; TGI [6]: > 100 µM; TGI [7]: > 100 µM; TGI [8]: > 100 µM; TGI [9]: > 100 µM; TGI [10]: > 100 µM; TGI [11]: > 100 µM; TGI [12]: > 100 µM

Which TGI [1] does the source give for `CC(C)OP(=O)(OC(C)C)/C(I)=N/Nc1ccc([N+](=O)[O-])cc1` here?
The TGI was > 100 µM.

What about the TGI [2] of the same compound?
The TGI was > 100 µM.

And the TGI [13]?
The TGI was > 100 µM.

And the TGI [4]?
Its TGI is > 100 µM.

What about the TGI [14] of the same compound?
Its TGI is > 100 µM.

What about the TGI [15] of the same compound?
Its TGI is > 100 µM.

And the TGI [6]?
The TGI was > 100 µM.

And the TGI [8]?
Its TGI is > 100 µM.

And the TGI [9]?
The TGI was > 100 µM.

What about the TGI [10] of the same compound?
The TGI was > 100 µM.

What about the TGI [11] of the same compound?
Its TGI is > 100 µM.

And the TGI [12]?
The TGI was > 100 µM.

For `Cc1ccc(N=N/C(=N\NC(=O)c2ccc(C)cc2)c2ccc(N(CCC#N)CCC#N)cc2C)cc1`, which TGI [2] is on record?
Its TGI is > 100 µM.

What about the TGI [16] of the same compound?
Its TGI is 70 µM.

And the TGI [4]?
The TGI was > 100 µM.

And the TGI [17]?
Its TGI is > 100 µM.

And the TGI [18]?
The TGI was > 100 µM.

And the TGI [19]?
The TGI was 65.8 µM.

What about the TGI [5] of the same compound?
Its TGI is > 100 µM.

And the TGI [15]?
The TGI was > 100 µM.

And the TGI [20]?
Its TGI is > 100 µM.

What about the TGI [7] of the same compound?
The TGI was > 100 µM.

What about the TGI [8] of the same compound?
The TGI was > 100 µM.

What about the TGI [10] of the same compound?
The TGI was > 100 µM.

With `Cc1ccc(N2Cc3c(ccc4ccccc34)OP2(=O)Oc2ccc(Cl)c(C)c2)cc1` (stereo not given) as the compound, how does the TGI [1] read?
The TGI was > 100 µM.

And the TGI [2]?
The TGI was > 100 µM.

And the TGI [13]?
The TGI was > 100 µM.

What about the TGI [3] of the same compound?
The TGI was > 100 µM.

And the TGI [4]?
Its TGI is > 100 µM.

What about the TGI [5] of the same compound?
The TGI was > 100 µM.

What about the TGI [6] of the same compound?
Its TGI is > 100 µM.

And the TGI [7]?
Its TGI is > 100 µM.

What about the TGI [8] of the same compound?
The TGI was > 100 µM.

And the TGI [9]?
Its TGI is > 100 µM.

What about the TGI [10] of the same compound?
Its TGI is > 100 µM.

And the TGI [11]?
Its TGI is > 100 µM.

What about the TGI [12] of the same compound?
The TGI was > 100 µM.

`CC1=Nc2nc(Cl)cn2C(=O)C1(Cl)Cl` was tested. Which TGI [16] did it give?
Its TGI is > 10 µM.

And the TGI [4]?
Its TGI is > 10 µM.

And the TGI [17]?
Its TGI is > 10 µM.

And the TGI [18]?
The TGI was > 10 µM.

And the TGI [19]?
The TGI was > 10 µM.

And the TGI [5]?
The TGI was > 10 µM.

What about the TGI [15] of the same compound?
The TGI was > 10 µM.

What about the TGI [6] of the same compound?
Its TGI is > 10 µM.

And the TGI [20]?
The TGI was > 10 µM.

What about the TGI [7] of the same compound?
Its TGI is > 10 µM.

What about the TGI [8] of the same compound?
The TGI was > 10 µM.

What about the TGI [10] of the same compound?
Its TGI is > 10 µM.

Which results are given for `COc1ccc(-n2cnnc2-c2nsc3ccccc23)cc1`?
TGI [1]: > 100 µM; TGI [2]: > 100 µM; TGI [13]: > 100 µM; TGI [3]: > 100 µM; TGI [14]: > 100 µM; TGI [15]: > 100 µM; TGI [8]: > 100 µM; TGI [9]: > 100 µM; TGI [10]: > 100 µM; TGI [11]: > 100 µM

With `C[Si](C)(OCCS(=O)(=O)O)C1(Cc2cccc3ccccc23)S(=O)(=O)OCCOS1(=O)=O` as the compound, how does the TGI [2] read?
The TGI was 50.7 µM.

What about the TGI [16] of the same compound?
Its TGI is 95 µM.

And the TGI [4]?
Its TGI is 31.4 µM.

What about the TGI [17] of the same compound?
Its TGI is 34.6 µM.

And the TGI [18]?
Its TGI is 45.4 µM.

What about the TGI [19] of the same compound?
The TGI was 43 µM.

What about the TGI [5] of the same compound?
Its TGI is 39.5 µM.

What about the TGI [15] of the same compound?
The TGI was 50.9 µM.

What about the TGI [20] of the same compound?
The TGI was 37.4 µM.

What about the TGI [7] of the same compound?
The TGI was 45.8 µM.

What about the TGI [8] of the same compound?
The TGI was 52.3 µM.

And the TGI [10]?
The TGI was 25.3 µM.
